Measured values published in patent US11028079B2 (ConverGene LLC, priority 2015, dated 2021).
pKd: −log10 of the molar value.

What follows are compounds tested against T1, BRD4 bromodomains (Homo sapiens, UniProt O60885) (assay: BROMOscan bromodomain competition binding assay (DiscoveRx)). Conditions: Kd from 11 compound concentrations ranging from 0 to 10 μM, read-out: BROMOscan Relative Activity.
T1 construct: fused on or other part: T7 phage capsid protein (phage-display fusion; the phage DNA is read out by qPCR)
Summary of the method: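 Compounds in 0.1% DMSO/0.9% MEG competed with a solid-phase acetylated peptide for T7 phage-fused BRD4 bromodomains, with the retained bromodomain measured by qPCR.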

Q: With `Cc1noc(C)c1-c1ccc2nc(N3CCC(C)(C#N)CC3)nc(NCc3cncc(Cl)c3)c2c1` [Example 157, 1-(4-(((5-chloropyridin-3-yl)methyl)amino)-6-(3,5-dimethylisoxazol-4-yl)quinazolin-2-yl)-4-methylpiperidine-4-carbonitrile] as the compound, how does the pKd read?
A: > 6.30

Q: How did the pKd turn out when `Cc1noc(C)c1-c1ccc2ncnc(Nc3ccc(Cl)cc3)c2c1` [Example 158, N-(4-chlorophenyl)-6-(3,5-dimethylisoxazol-4-yl)quinazolin-4-amine] was run?
A: 5.30 to 6.30

Q: With `Cn1cc(-c2ccc3ncnc(Nc4ccc(Cl)cc4)c3c2)ccc1=O` [Example 159, 5-(4-((4-chlorophenyl)amino)quinazolin-6-yl)-1-methylpyridin-2(1H)-one] as the compound, how does the pKd read?
A: < 5.30

Q: `Cc1noc(C)c1-c1ccc2nc(N3CCN(CCN(C)C)CC3)nc(NCCc3ccc(Cl)cc3)c2c1` [Example 160, N-(4-chlorophenethyl)-2-(4-(2-(dimethylamino)ethyl)piperazin-1-yl)-6-(3,5-dimethylisoxazol-4-yl)quinazolin-4-amine] was tested. Which pKd did it give?
A: 5.30 to 6.30

Q: `Cc1noc(C)c1-c1ccc2nc(N3CCN(CCN(C)C)CC3)nc(N3CC(Cc4ccccc4)C3)c2c1` [Example 161, 2-(4-(4-(3-benzylazetidin-1-yl)-6-(3,5-dimethylisoxazol-4-yl)quinazolin-2-yl)piperazin-1-yl)-N,N-dimethylethanamine] was tested. Which pKd did it give?
A: 5.30 to 6.30

Q: `Cc1noc(C)c1-c1ccc2nc(N3CCN(CCN(C)C)CC3)nc(Nc3ccc(Cl)cc3)c2c1` [Example 162, N-(4-chlorophenyl)-2-(4-(2-(dimethylamino)ethyl)piperazin-1-yl)-6-(3,5-dimethylisoxazol-4-yl)quinazolin-4-amine] was tested. Which pKd did it give?
A: 5.30 to 6.30

Q: `Cc1noc(C)c1-c1ccc2nc(C(=O)O)nc(NCc3cccc(Cl)c3)c2c1` [Example 163, 4-((3-chlorobenzyl)amino)-6-(3,5-dimethylisoxazol-4-yl)quinazoline-2-carboxylic acid] was tested. Which pKd did it give?
A: > 6.30

Q: With `Cc1noc(C)c1-c1ccc2nc(-c3cnn(CCO)c3)nc(NC3(c4cccc(Cl)c4)CC3)c2c1` [Example 164, 2-(4-(4-((1-(3-chlorophenyl)cyclopropyl)amino)-6-(3,5-dimethylisoxazol-4-yl)quinazolin-2-yl)-1H-pyrazol-1-yl)ethanol] as the compound, how does the pKd read?
A: > 6.30

Q: With `Cc1noc(C)c1-c1ccc2nc(C(=O)N3CCN(CCN(C)C)CC3)nc(NCc3cccc(Cl)c3)c2c1` [Example 165, (4-((3-chlorobenzyl)amino)-6-(3,5-dimethylisoxazol-4-yl)quinazolin-2-yl)(4-(2-(dimethylamino)ethyl)piperazin-1-yl)methanone] as the compound, how does the pKd read?
A: 5.30 to 6.30

Q: `Cc1noc(C)c1-c1ccc2nc(-c3cnn(CC(=O)O)c3)nc(NCc3cccc(Cl)c3)c2c1` [Example 166, 2-(4-(4-((3-chlorobenzyl)amino)-6-(3,5-dimethylisoxazol-4-yl)quinazolin-2-yl)-1H-pyrazol-1-yl)acetic acid] was tested. Which pKd did it give?
A: > 6.30

Q: `Cc1noc(C)c1-c1ccc2nc(NCc3ccc(Cl)cc3)nc(NCc3cccc(Cl)c3)c2c1` [Example 167, N4-(3-chlorobenzyl)-N2-(4-chlorobenzyl)-6-(3,5-dimethylisoxazol-4-yl)quinazoline-2,4-diamine] was tested. Which pKd did it give?
A: < 5.30

Q: `Cc1noc(C)c1-c1ccc2nc(C(=O)NCc3ccc(Cl)cc3)nc(NCc3cccc(Cl)c3)c2c1` [Example 168, N-(4-chlorobenzyl)-4-((3-chlorobenzyl)amino)-6-(3,5-dimethylisoxazol-4-yl)quinazoline-2-carboxamide] was tested. Which pKd did it give?
A: < 5.30

Q: `Cc1noc(C)c1-c1ccc2nc(Oc3ccc(Cl)cc3)nc(NCc3cccc(Cl)c3)c2c1` [Example 169, N-(3-chlorobenzyl)-2-(4-chlorophenoxy)-6-(3,5-dimethylisoxazol-4-yl)quinazolin-4-amine] was tested. Which pKd did it give?
A: < 5.30

Q: With `Cc1noc(C)c1-c1ccc2nc(N3CCN(CCN(C)C)CC3)nc(NC3(c4cccc(Cl)c4)CC3)c2c1` [Example 170, N-(1-(3-chlorophenyl)cyclopropyl)-2-(4-(2-(dimethylamino)ethyl)piperazin-1-yl)-6-(3,5-dimethylisoxazol-4-yl)quinazolin-4-amine] as the compound, how does the pKd read?
A: > 6.30
